Source: patent US20180153830A1, “SELECTIVE INHIBITORS OF UNDIFFERENTIATED CELLS” (Yissum Research Development Company of the Hebrew …, priority 2012, published 2018)

Tests used:
[1] = hPSC viability after SCD1 inhibitors with or without oleic acid; type: cell-based, human; settings: human, human pluripotent stem cells (hPSCs), 75 nM, read-out: decrease in viability of hPSCs
Experimental: (§1) In order to determine whether hPSC viability indeed depends on functional SCD1 activity, hPSCs were exposed to 75 nM of the specific SCD1 inhibitors A939572 and CAY-10566 for 48 hours. Some samples were supplemented with 100 μM oleic acid in order to evaluate the effect of exogenous supplementation of oleic acid (a product of SCD1 activity) on cell death.

hPSCs = assay: as above; type: cell-based, human; settings: 75 nM inhibitor, 100 μM oleic acid, 48 hours
Experimental: as §1

[2] = test system: non-pluripotent cell types (BJ-fibroblasts, HeLa, HepG2 and Kelly cells); assay: Methylene blue viability of non-pluripotent cells in embryonic stem cell medium; type: cell-based, human; settings: 20 μM, 72 hours
Experimental: (§2) For the high-throughput screens, relative cell number was determined using a CellTiter-Glo® Luminescent Cell Viability Assay as described hereinabove. Otherwise, relative cell numbers were determined by fixating the cells with 0.5% glutardialdehyde and staining with methylene blue dissolved in 0.1 M boric acid (pH 8.5). Color extraction was performed using 0.1 M hydrochloric acid, and the staining (which is proportional to cell number) was quantified by measuring absorbance at a wavelength of 650 nm.
In order to ascertain that the selectivity of PluriSin cytotoxicity is cell type-dependent rather than cell medium-dependent, four non-pluripotent cell types (BJ-fibroblasts, HeLa, HepG2 and Kelly cells) were cultured in human embryonic stem cell medium and exposed to PluriSIn #1 for 72 hours. Cell viability was then determined by a methylene blue assay, as described hereinabove.

[3] = test system: transformed BJ fibroblasts; assay: Methylene blue viability, transformed BJ fibroblasts; type: cell-based, human; settings: up to 100 μM, 72 hours, 2% fetal bovine serum
Experimental: as §2
(§3) In one experiment, immortalized BJ fibroblasts served as differentiated cells and were compared with BJ fibroblasts induced to undergo cellular transformation, which served as their undifferentiated cancerous counterparts. […]
(§4) The differentiated and undifferentiated cells were exposed to PluriSIn #1 at concentrations of up to 100 μM for 72 hours under low (2%) fetal bovine serum conditions. Their viability was then measured using a methylene blue viability assay, as described hereinabove.

[4] = test system: normal (immortalized) BJ fibroblasts; assay: Methylene blue viability, immortalized BJ fibroblasts; type: cell-based, human; settings: up to 100 μM, 72 hours, 2% fetal bovine serum
Experimental: as §2, §3, §4

SCD1 = molecular target: T1, SCD1 (Homo sapiens, UniProt O00767); assay: SCD1 activity measurement ([1-14C] stearic acid pulse-chase labeling); type: cell-based; parameters: PluriSIn #1 decreased SCD1 activity by approximately 65% decrease in ES cells; endogenous in cells; host or cells: human embryonic stem cells (H9, printed '1-19'); settings: 20 μM, 12 hours
T1 sequence (O00767 1-359): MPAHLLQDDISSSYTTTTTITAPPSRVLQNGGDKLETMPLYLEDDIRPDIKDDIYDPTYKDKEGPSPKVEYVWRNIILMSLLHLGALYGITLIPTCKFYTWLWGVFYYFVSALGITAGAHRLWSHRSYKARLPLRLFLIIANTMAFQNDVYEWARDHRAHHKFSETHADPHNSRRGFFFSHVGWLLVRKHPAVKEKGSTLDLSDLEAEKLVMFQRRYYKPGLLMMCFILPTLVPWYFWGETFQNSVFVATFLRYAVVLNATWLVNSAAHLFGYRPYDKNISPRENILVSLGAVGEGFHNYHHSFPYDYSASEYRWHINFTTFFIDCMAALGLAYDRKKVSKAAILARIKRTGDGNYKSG
Experimental: Cells were plated in 6-well plates at a density of 50,000 to 100,000 cells per well. 24 hours later, 20 μM of PluriSIn #1 (isonicotinic acid N′-phenylhydrazide) or 0.2% DMSO (control) were added to the cells. After 12 hours of incubation at 37° C., under 5% CO2, the old medium was removed, cells were washed with PBS, and new medium containing 2.3 μM of 0.75 μCi of [1-^14C] stearic acid was added. The cells were then incubated for up to 4 hours at 37° C., under 5% CO2.
After the incubation period, the medium was discarded and the cells were washed 3 times with 2 ml of PBS. 2 ml of an n-hexane:isopropanol mixture (3:2 v:v) were added, and the cells were then incubated for 30 minutes at a temperature of 37° C., under 5% CO2. […] The free fatty acids were detected by ultraviolet illumination after spraying the TLC with a 2′,7′-dichlorofluorescein solution. The spots corresponding to stearic and oleic acid were scraped and the radioactivity counted in a Packard Tri-Carb® 1600TR scintillating counter. SCD1 desaturase activity was calculated from the percent conversion of substrate to product and the conversion to picomoles per minute per 10^6 cells. […]
In order to directly examine whether PluriSin #1 inhibits SCD activity, and whether this inhibition is restricted to pluripotent cells, SCD1 activity was measured by a pulse-chase labeling assay, as described in the Materials and Methods section. […]

| Structure (SMILES) | cytotoxicity at 48 h, 75 nM [1] [%] | rescue from SCD1 inhibitor-induced cell death by oleic acid (hPSCs) | viability of non-pluripotent cells cultured in embryonic stem cell medium [2] | cytotoxicity towards transformed BJ fibroblasts [3] | effect on normal (immortalized) BJ fibroblasts [4] | decrease in SCD1 activity in ES cells (SCD1) |
| --- | --- | --- | --- | --- | --- | --- |
| CNC(=O)c1cccc(NC(=O)N2CCC(Oc3ccccc3Cl)CC2)c1 [A939572, 4-(2-chlorophenoxy)-N-(3-(methylcarbamoyl)-phenyl)piperidine-1-carboxamide, reference compound] | > 80 | completely rescued |  |  |  |  |
| O=C(NNc1ccccc1)c1ccncc1 [PluriSIn #1, isonicotinic acid N′-phenylhydrazide] |  |  | no effect | highly cytotoxic | little effect | approximately 65% |
